Data from patent US12606541B2, “PPARg modulators and methods of use” (Eisai R&D Management Co., Ltd., priority 2020, dated 2026).
Where two headings read alike, the source gives them in different places.

Assays:
[1] = biological target: T1, His6-TEV-PPARγ-(234-505) (Homo sapiens, UniProt P37231); experiment: TR-FRET Assay to Measure Co-R Peptide Recruitment to PPARγ; format: biochemical; settings: Co-R peptide (SMRT-ID2) recruitment, top final concentration 20 μM, read-out: TR-FRET i-Ag, AC50
T1 construct: The His6-TEV-PPARγ-(234-505) protein for assay was expressed and purified; TEV cleavage site (N); made in house
T1 sequence (P37231 234-505): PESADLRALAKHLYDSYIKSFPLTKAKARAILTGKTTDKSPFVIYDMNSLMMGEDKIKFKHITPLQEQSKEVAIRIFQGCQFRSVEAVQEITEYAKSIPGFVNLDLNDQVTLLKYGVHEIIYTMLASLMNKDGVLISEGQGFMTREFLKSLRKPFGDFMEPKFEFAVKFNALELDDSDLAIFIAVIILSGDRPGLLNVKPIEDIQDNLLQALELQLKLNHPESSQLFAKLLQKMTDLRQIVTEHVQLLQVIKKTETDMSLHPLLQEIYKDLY
Outline: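 His-tagged PPARγ (or controls) was preincubated with compound for 20 minutes at room temperature, then 5 nM anti-His terbium antibody and 200 nM FITC-labeled SMRT-ID2 corepressor peptide (final) were added for a further hour. TR-FRET signal was normalized to percent response using 500 nM T0070907 and DMSO controls.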

[2] = system: UM-UC-9 engineered cells; experiment: Cell proliferation / short-term viability assay, CellTiter-Glo 144 h; format: cell-based, human; settings: read-out: CTGlo 144 h UMUC9.5, G150
Outline: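 UM-UC-9 engineered assay-ready cells seeded at 500 cells/well in high-glucose DMEM/10% FBS, treated from dose-response plates, grown at 37° C, 5% CO2. CellTiter-Glo 2.0 luminescence read on day 7, with a day-0 pretreatment plate as T0 reference and DMSO wells as negative control.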

| AC50 [1] [nM] | Compound | IC50 [2] [nM] | IC50 ([2]; Homo sapiens, UM-UC-9, 144 h) [nM] | AC50 ([1]; listed as 115b) [nM] | IC50 ([2]; listed as 115b) [nM] |
| --- | --- | --- | --- | --- | --- |
| 10.2 | COc1cc(-c2cc(C(=O)N3CC[C@H](C(=O)NCc4ncc(F)cc4C)CC34CC4)n[nH]2)c(F)cn1 [Example 361, (S)-4-(5-(5-fluoro-2-methoxypyridin-4-yl)-1H-pyrazole-3-carbonyl)-N-((5-fluoro-3-methylpyridin-2-yl)methyl)-4-azaspiro[2,5]octane-7-carboxamide] | – | 17.8 | – | – |
| 321 | COc1cc(-c2cc(C(=O)N3CCC(C(=O)NCc4cncc(Cl)c4)CC3)n[nH]2)c(Cl)cn1 [Example 179, 1-(5-(5-chloro-2-methoxypyridin-4-yl)-1H-pyrazole-3-carbonyl)-N-((5-chloropyridin-3-yl)methyl)piperidine-4-carboxamide] | – | 1530 | – | – |
| 42.8 | COc1cc(-c2cc(C(=O)N3CCC(C(=O)NCc4ccc5cc[nH]c5n4)CC3)n[nH]2)c(Cl)cn1 [Example 226, N-((1H-pyrrolo[2,3-b]pyridin-6-yl)methyl)-1-(5-(5-chloro-2-methoxypyridin-4-yl)-1H-pyrazole-3-carbonyl)piperidine-4-carboxamide] | – | 427 | – | – |
| 14.4 | COc1cc(-c2cc(C(=O)N3CC[C@H](C(=O)NCc4nc(C)ncc4Cl)CC34CC4)n[nH]2)c(F)cn1 [Example 387, (S)—N-((5-chloro-2-methylpyrimidin-4-yl)methyl)-4-(5-(5-fluoro-2-methoxypyridin-4-yl)-1H-pyrazole-3-carbonyl)-4-azaspiro[2,5]octane-7-carboxamide] | – | 22.5 | – | – |
| 32.1 | COc1cc(-c2cc(C(=O)N3CCC(C(=O)NCc4cccc(Cl)c4F)CC3)n[nH]2)c(Cl)cn1 [Example 156, N-(3-chloro-2-fluorobenzyl)-1-(5-(5-chloro-2-methoxypyridin-4-yl)-1H-pyrazole-3-carbonyl)piperidine-4-carboxamide] | – | 106 | – | – |
| 8.2 | COc1cc(-c2cc(C(=O)N3CC[C@H](C(=O)NC4CCN(c5cnc(C)nc5)C4)CC34CC4)n[nH]2)c(F)cn1 (single isomer, unassigned) [Example 453-B] | 398 | – | – | – |
| 11.4 | COc1cc(-c2cc(C(=O)N3CC[C@H](C(=O)NCc4nccnc4Cl)CC34CC4)n[nH]2)c(F)cn1 [Example 388, (S)—N-((3-chloropyrazin-2-yl)methyl)-4-(5-(5-fluoro-2-methoxypyridin-4-yl)-1H-pyrazole-3-carbonyl)-4-azaspiro[2.5]octane-7-carboxamide] | – | 17.6 | – | – |
| 13.3 | COc1cc(-c2cc(C(=O)N3CC[C@H](C(=O)Nc4cnn5cc(C(C)O)ccc45)CC34CC4)n[nH]2)c(F)cn1 (single isomer, unassigned) [Example 495-B] | 144 | – | – | – |
| 0.3 | COc1cc(-c2cc(C(=O)N3CC[C@H](C(=O)NCc4ncc(OC(C)C)cc4Cl)CC34CC4)n[nH]2)c(F)cn1 [Example 491, (S)—N-((3-chloro-5-isopropoxypyridin-2-yl)methyl)-4-(5-(5-fluoro-2-methoxypyridin-4-yl)-1H-pyrazole-3-carbonyl)-4-azaspiro[2.5]octane-7-carboxamide] | – | 11 | – | – |
| 688 | COc1cc(-c2cc(C(=O)N3CCC(C(=O)NCC4CC(OC)C4)CC3)n[nH]2)c(Cl)cn1 (mixture of isomers) [Example 145, 1-(5-(5-chloro-2-methoxypyridin-4-yl)-1H-pyrazole-3-carbonyl)-N-((3-methoxycyclobutyl)methyl)piperidine-4-carboxamide] | – | 4120 | – | – |
| 259 | COc1cc(-c2cc(C(=O)N3CCC(C(=O)NCc4cn5c(C)cccc5n4)CC3)n[nH]2)c(Cl)cn1 [Example 210, 1-(5-(5-chloro-2-methoxypyridin-4-yl)-1H-pyrazole-3-carbonyl)-N-((5-methylimidazo[1,2-a]pyridin-2-yl)methyl)piperidine-4-carboxamide] | – | 1680 | – | – |

More lines, now with the values behind:

| Compound | AC50 [1] [nM] | IC50 [2] [nM] | IC50 ([2]; Homo sapiens, UM-UC-9, 144 h) [nM] | AC50 ([1]; listed as 115b) [nM] | IC50 ([2]; listed as 115b) [nM] |
| --- | --- | --- | --- | --- | --- |
| (S)-1-(5-(5-fluoro-2-methoxypyridin-4-yl)-1H-pyrazole-3-carbonyl)-N-((1r,4S)-4-hydroxy-4-(trifluoromethyl)cyclohexyl)-2,2-dimethylpiperidine-4-carboxamide and (R)-1-(5-(5-fluoro-2-methoxypyridin-4-yl)-1H-pyrazole-3-carbonyl)-N-((1r,4R)-4-hydroxy-4-(trifluoromethyl)cyclohexyl)-2,2-dimethylpiperidine-4-carboxamide [Example 407] | 30.3 | 23 | – | – | – |
| COc1cc(-c2cc(C(=O)N3CC[C@H](C(=O)NC4CCC(O)(C(C)(F)F)CC4)CC34CC4)n[nH]2)c(F)cn1 (single isomer, unassigned) [Example 375-A] | 3.4 | 1.3 | – | – | – |
| COc1cc(-c2cc(C(=O)N3CC[C@H](C(=O)NC4CCC5CCCN5C4)CC34CC4)n[nH]2)c(F)cn1 (single isomer, unassigned) [Example 376-A] | 897 | 1730 | – | – | – |
| COc1cc(-c2cc(C(=O)N3CC[C@H](C(=O)N[C@@H]4CCN(CC(C)(C)O)C4)CC34CC4)[nH]n2)c(F)cn1 [Example 344-B, (S)-4-(3-(5-fluoro-2-methoxypyridin-4-yl)-1H-pyrazole-5-carbonyl)-N—((R)-1-(2-hydroxy-2-methylpropyl)pyrrolidin-3-yl)-4-azaspiro[2.5]octane-7-carboxamide] | 123 | – | 570 | – | – |
| COc1cc(-c2cc(C(=O)N3[C@@H]4CC[C@H]3C[C@H](C(=O)NC3CCC5(CC3)OCC5C(F)(F)F)C4)n[nH]2)c(F)cn1 (stereo partly shown) [Example 318] | 340 | – | 372 | – | – |
| COc1cc(-c2cc(C(=O)N3CC[C@H](C(=O)NC4CCN(c5ccnc6[nH]ncc56)C4)CC34CC4)n[nH]2)c(F)cn1 (single isomer, unassigned) [Example 450-A] | 3.3 | 162 | – | – | – |
| COc1cc(-c2cc(C(=O)N3CCC(C(=O)Nc4cnn5ccc(C6CC6C#N)nc45)CC34CC4)n[nH]2)c(F)cn1 (mixture of isomers) [Example 466, (S)—N-(5-((1S,2S)-2-cyanocyclopropyl)pyrazolo[1,5-a]pyrimidin-3-yl)-4-(5-(5-fluoro-2-methoxypyridin-4-yl)-1H-pyrazole-3-carbonyl)-4-azaspiro[2.5]octane-7-carboxamide and (S)—N-(5-((1R,2R)-2-cyanocyclopropyl)pyrazolo[1,5-a]pyrimidin-3-yl)-4-(5-(5-fluoro-2-methoxypyridin-4-yl)-1H-pyrazole-3-carbonyl)-4-azaspiro[2.5]octane-7-carboxamide] | 5.1 | 51.2 | – | – | – |
| COc1cc(-c2cc(C(=O)N3CCC(C(=O)NC(C)c4cccc(Cl)c4)CC3)n[nH]2)c(Cl)cn1 (single isomer, unassigned) [Example 115-B] | – | – | – | 59.5 | 263 |
| COc1cc(-c2cc(C(=O)N3CC[C@H](C(=O)NC(C)c4nnc(C5CC5)o4)CC34CC4)n[nH]2)c(F)cn1 (single isomer, unassigned) [Example 395-B] | 671 | – | 593 | – | – |
| (S)—N-((1s,4R)-4-(1,1-difluoroethyl)-4-hydroxycyclohexyl)-4-(5-(5-fluoro-2-methoxypyridin-4-yl)-1H-pyrazole-3-carbonyl)-4-azaspiro[2.5]octane-7-carboxamide and (S)—N-((1r,4S)-4-(1,1-difluoroethyl)-4-hydroxycyclohexyl)-4-(5-(5-fluoro-2-methoxypyridin-4-yl)-1H-pyrazole-3-carbonyl)-4-azaspiro[2.5]octane-7-carboxamide [Example 375] | 6.4 | 1.6 | – | – | – |
| COc1cc(-c2cc(C(=O)N3[C@@H]4CC[C@H]3C[C@H](C(=O)NC3CCC5(CC3)OCC5(F)F)C4)n[nH]2)c(F)cn1 (mixture of isomers) [Example 307, (1R,3s,5S)—N-(3,3-difluoro-1-oxaspiro[3.5]nonan-7-yl)-8-(5-(5-fluoro-2-methoxypyridin-4-yl)-1H-pyrazole-3-carbonyl)-8-azabicyclo[3.2.1]octane-3-carboxamide] | 22.1 | – | 173 | – | – |
| COc1cc(-c2cc(C(=O)N3CCC(C(=O)NC45CC(CO)(C4)OC5C)CC34CC4)n[nH]2)c(F)cn1 (mixture of isomers) [Example 518, (S)-4-(5-(5-fluoro-2-methoxypyridin-4-yl)-1H-pyrazole-3-carbonyl)-N—((R)-1-(hydroxymethyl)-3-methyl-2-oxabicyclo[2.1.1]hexan-4-yl)-4-azaspiro[2.5]octane-7-carboxamide and (S)-4-(5-(5-fluoro-2-methoxypyridin-4-yl)-1H-pyrazole-3-carbonyl)-N—((S)-1-(hydroxymethyl)-3-methyl-2-oxabicyclo[2.1.1]hexan-4-yl)-4-azaspiro[2.5]octane-7-carboxamide] | 149 | 4050 | – | – | – |
